According to the NIST ThermoML archive (doi:10.1021/je100410k):
± gives the expanded uncertainty stated by the source.

Assay: activity coefficient (dimensionless); of the first substance listed, at infinite dilution; xn = mol fraction of the nth substance listed
Settings: 101 kPa, Liquid, Chromatography, x1 = 0

O [water] + CCCCn1cc[n+](C)c1.Cc1ccc(S(=O)(=O)[O-])cc1
activity coefficient (338.2 K): 0.191 ± 0.029
activity coefficient (348.2 K): 0.196 ± 0.029
activity coefficient (358.2 K): 0.201 ± 0.029
activity coefficient (368.2 K): 0.207 ± 0.029

CCCCCCCCC [nonane] + CCCCn1cc[n+](C)c1.Cc1ccc(S(=O)(=O)[O-])cc1
activity coefficient (338.2 K): 86.1 ± 5.9
activity coefficient (348.2 K): 77.5 ± 5.3
activity coefficient (358.2 K): 71.3 ± 4.9
activity coefficient (368.2 K): 66.5 ± 4.6

Cc1ccccc1C [1,2-dimethylbenzene] + CCCCn1cc[n+](C)c1.Cc1ccc(S(=O)(=O)[O-])cc1
activity coefficient (338.2 K): 4.07 ± 0.28
activity coefficient (348.2 K): 4.01 ± 0.27
activity coefficient (358.2 K): 3.96 ± 0.27
activity coefficient (368.2 K): 3.93 ± 0.27

c1ccsc1 [thiophene] + CCCCn1cc[n+](C)c1.Cc1ccc(S(=O)(=O)[O-])cc1
activity coefficient (338.2 K): 1.11 ± 0.07
activity coefficient (348.2 K): 1.13 ± 0.07
activity coefficient (358.2 K): 1.14 ± 0.07
activity coefficient (368.2 K): 1.16 ± 0.07

COC(C)(C)C [2-methoxy-2-methylpropane] + CCCCn1cc[n+](C)c1.Cc1ccc(S(=O)(=O)[O-])cc1
activity coefficient (338.2 K): 8.28 ± 0.56
activity coefficient (348.2 K): 7.84 ± 0.53
activity coefficient (358.2 K): 7.58 ± 0.52
activity coefficient (368.2 K): 7.37 ± 0.5

CCCOCCC [dipropyl ether] + CCCCn1cc[n+](C)c1.Cc1ccc(S(=O)(=O)[O-])cc1
activity coefficient (338.2 K): 15.5 ± 1.1
activity coefficient (348.2 K): 15.2 ± 1
activity coefficient (358.2 K): 14.2 ± 1
activity coefficient (368.2 K): 13.6 ± 0.9

C#CCCCCCC [1-octyne] + CCCCn1cc[n+](C)c1.Cc1ccc(S(=O)(=O)[O-])cc1
activity coefficient (338.2 K): 7.12 ± 0.49
activity coefficient (348.2 K): 7.28 ± 0.5
activity coefficient (358.2 K): 7.39 ± 0.5
activity coefficient (368.2 K): 7.15 ± 0.49

CCCCCC [hexane] + CCCCn1cc[n+](C)c1.Cc1ccc(S(=O)(=O)[O-])cc1
activity coefficient (338.15 K): 36.3 ± 2.5
activity coefficient (348.15 K): 31.5 ± 2.2
activity coefficient (358.15 K): 29.2 ± 2
activity coefficient (368.15 K): 27.6 ± 1.9

CO [methanol] + CCCCn1cc[n+](C)c1.Cc1ccc(S(=O)(=O)[O-])cc1
activity coefficient (338.2 K): 0.217 ± 0.029
activity coefficient (348.2 K): 0.219 ± 0.029
activity coefficient (358.2 K): 0.221 ± 0.029
activity coefficient (368.2 K): 0.223 ± 0.029

CCCCCCC [heptane] + CCCCn1cc[n+](C)c1.Cc1ccc(S(=O)(=O)[O-])cc1
activity coefficient (338.15 K): 48.1 ± 3.3
activity coefficient (348.15 K): 42.2 ± 2.9
activity coefficient (358.15 K): 39.2 ± 2.7
activity coefficient (368.15 K): 36.6 ± 2.5

Cc1ccccc1 [toluene] + CCCCn1cc[n+](C)c1.Cc1ccc(S(=O)(=O)[O-])cc1
activity coefficient (338.2 K): 3.03 ± 0.21
activity coefficient (348.2 K): 3.01 ± 0.2
activity coefficient (358.2 K): 2.99 ± 0.2
activity coefficient (368.2 K): 2.97 ± 0.2

C1CCOC1 [tetrahydrofuran] + CCCCn1cc[n+](C)c1.Cc1ccc(S(=O)(=O)[O-])cc1
activity coefficient (338.2 K): 1.88 ± 0.13
activity coefficient (348.2 K): 1.87 ± 0.13
activity coefficient (358.2 K): 1.86 ± 0.13
activity coefficient (368.2 K): 1.85 ± 0.12

CCO [ethanol] + CCCCn1cc[n+](C)c1.Cc1ccc(S(=O)(=O)[O-])cc1
activity coefficient (338.2 K): 0.359 ± 0.033
activity coefficient (348.2 K): 0.357 ± 0.033
activity coefficient (358.2 K): 0.358 ± 0.033
activity coefficient (368.2 K): 0.358 ± 0.033

CCC(=O)CC [pentan-3-one] + CCCCn1cc[n+](C)c1.Cc1ccc(S(=O)(=O)[O-])cc1
activity coefficient (338.2 K): 2.68 ± 0.18
activity coefficient (348.2 K): 2.65 ± 0.18
activity coefficient (358.2 K): 2.63 ± 0.18
activity coefficient (368.2 K): 2.6 ± 0.18

CCCCCCCCCC [decane] + CCCCn1cc[n+](C)c1.Cc1ccc(S(=O)(=O)[O-])cc1
activity coefficient (338.2 K): 119 ± 8.1
activity coefficient (348.2 K): 106 ± 7.3
activity coefficient (358.2 K): 98.3 ± 6.7
activity coefficient (368.2 K): 90.8 ± 6.2

C1CCCCCC1 [cycloheptane] + CCCCn1cc[n+](C)c1.Cc1ccc(S(=O)(=O)[O-])cc1
activity coefficient (338.2 K): 17.7 ± 1.2
activity coefficient (348.2 K): 16.3 ± 1.1
activity coefficient (358.2 K): 15.4 ± 1.1
activity coefficient (368.2 K): 14.5 ± 1

C=CCCCC [hex-1-ene] + CCCCn1cc[n+](C)c1.Cc1ccc(S(=O)(=O)[O-])cc1
activity coefficient (338.2 K): 18 ± 1.2
activity coefficient (348.2 K): 16.6 ± 1.1
activity coefficient (358.2 K): 15.7 ± 1.1
activity coefficient (368.2 K): 14.9 ± 1

CCOCC [diethyl ether] + CCCCn1cc[n+](C)c1.Cc1ccc(S(=O)(=O)[O-])cc1
activity coefficient (338.2 K): 6.57 ± 0.45
activity coefficient (348.2 K): 6.36 ± 0.43
activity coefficient (358.2 K): 6.16 ± 0.42
activity coefficient (368.2 K): 5.93 ± 0.4

CCCC(C)=O [pentan-2-one] + CCCCn1cc[n+](C)c1.Cc1ccc(S(=O)(=O)[O-])cc1
activity coefficient (338.2 K): 2.68 ± 0.18
activity coefficient (348.2 K): 2.64 ± 0.18
activity coefficient (358.2 K): 2.61 ± 0.18
activity coefficient (368.2 K): 2.58 ± 0.18

Cc1ccc(C)cc1 [1,4-dimethylbenzene] + CCCCn1cc[n+](C)c1.Cc1ccc(S(=O)(=O)[O-])cc1
activity coefficient (338.2 K): 4.73 ± 0.32
activity coefficient (348.2 K): 4.64 ± 0.32
activity coefficient (358.2 K): 4.61 ± 0.31
activity coefficient (368.2 K): 4.56 ± 0.31

C=CCCCCC [1-heptene] + CCCCn1cc[n+](C)c1.Cc1ccc(S(=O)(=O)[O-])cc1
activity coefficient (338.2 K): 24.2 ± 1.7
activity coefficient (348.2 K): 22.5 ± 1.5
activity coefficient (358.2 K): 21.5 ± 1.5
activity coefficient (368.2 K): 20.4 ± 1.4

C=CCCCCCC [oct-1-ene] + CCCCn1cc[n+](C)c1.Cc1ccc(S(=O)(=O)[O-])cc1
activity coefficient (338.2 K): 33.1 ± 2.3
activity coefficient (348.2 K): 31 ± 2.1
activity coefficient (358.2 K): 29.5 ± 2
activity coefficient (368.2 K): 28.2 ± 1.9

C#CCCCCC [1-heptyne] + CCCCn1cc[n+](C)c1.Cc1ccc(S(=O)(=O)[O-])cc1
activity coefficient (338.2 K): 5.13 ± 0.35
activity coefficient (348.2 K): 5.23 ± 0.36
activity coefficient (358.2 K): 5.34 ± 0.36
activity coefficient (368.2 K): 5.43 ± 0.37

CC(C)=O [acetone] + CCCCn1cc[n+](C)c1.Cc1ccc(S(=O)(=O)[O-])cc1
activity coefficient (338.2 K): 1.48 ± 0.1
activity coefficient (348.2 K): 1.46 ± 0.1
activity coefficient (358.2 K): 1.45 ± 0.1
activity coefficient (368.2 K): 1.42 ± 0.09

C=CCCC [1-pentene] + CCCCn1cc[n+](C)c1.Cc1ccc(S(=O)(=O)[O-])cc1
activity coefficient (338.2 K): 13.7 ± 0.9
activity coefficient (348.2 K): 12.6 ± 0.9
activity coefficient (358.2 K): 11.9 ± 0.8
activity coefficient (368.2 K): 11.2 ± 0.8

C1CCCC1 [cyclopentane] + CCCCn1cc[n+](C)c1.Cc1ccc(S(=O)(=O)[O-])cc1
activity coefficient (338.2 K): 11.3 ± 0.8
activity coefficient (348.2 K): 9.9 ± 0.7
activity coefficient (358.2 K): 9.3 ± 0.6
activity coefficient (368.2 K): 9 ± 0.6

C#CCCCC [1-hexyne] + CCCCn1cc[n+](C)c1.Cc1ccc(S(=O)(=O)[O-])cc1
activity coefficient (338.2 K): 3.69 ± 0.25
activity coefficient (348.2 K): 3.78 ± 0.26
activity coefficient (358.2 K): 3.86 ± 0.26
activity coefficient (368.2 K): 3.94 ± 0.27

Cc1cccc(C)c1 [1,3-dimethylbenzene] + CCCCn1cc[n+](C)c1.Cc1ccc(S(=O)(=O)[O-])cc1
activity coefficient (338.2 K): 4.76 ± 0.32
activity coefficient (348.2 K): 4.67 ± 0.32
activity coefficient (358.2 K): 4.63 ± 0.32
activity coefficient (368.2 K): 4.58 ± 0.31

C1CCCCCCC1 [cyclooctane] + CCCCn1cc[n+](C)c1.Cc1ccc(S(=O)(=O)[O-])cc1
activity coefficient (338.2 K): 21.3 ± 1.5
activity coefficient (348.2 K): 19.7 ± 1.3
activity coefficient (358.2 K): 18.6 ± 1.3
activity coefficient (368.2 K): 17.6 ± 1.2

C1CCCCC1 [cyclohexane] + CCCCn1cc[n+](C)c1.Cc1ccc(S(=O)(=O)[O-])cc1
activity coefficient (338.2 K): 16.3 ± 1.1
activity coefficient (348.2 K): 14.6 ± 1
activity coefficient (358.2 K): 13.4 ± 0.9
activity coefficient (368.2 K): 12.5 ± 0.9

CCc1ccccc1 [ethylbenzene] + CCCCn1cc[n+](C)c1.Cc1ccc(S(=O)(=O)[O-])cc1
activity coefficient (338.2 K): 4.45 ± 0.3
activity coefficient (348.2 K): 4.4 ± 0.3
activity coefficient (358.2 K): 4.36 ± 0.3
activity coefficient (368.2 K): 4.32 ± 0.29

c1ccccc1 [benzene] + CCCCn1cc[n+](C)c1.Cc1ccc(S(=O)(=O)[O-])cc1
activity coefficient (338.2 K): 1.96 ± 0.13
activity coefficient (348.2 K): 1.93 ± 0.13
activity coefficient (358.2 K): 1.93 ± 0.13
activity coefficient (368.2 K): 1.93 ± 0.13

CCCO [propan-1-ol] + CCCCn1cc[n+](C)c1.Cc1ccc(S(=O)(=O)[O-])cc1
activity coefficient (338.2 K): 0.437 ± 0.035
activity coefficient (348.2 K): 0.434 ± 0.035
activity coefficient (358.2 K): 0.437 ± 0.035
activity coefficient (368.2 K): 0.437 ± 0.035

CCCCCCCC [octane] + CCCCn1cc[n+](C)c1.Cc1ccc(S(=O)(=O)[O-])cc1
activity coefficient (338.2 K): 63.9 ± 4.4
activity coefficient (348.2 K): 57.7 ± 4
activity coefficient (358.2 K): 53 ± 3.6
activity coefficient (368.2 K): 49.6 ± 3.4
